Reference: ChEMBL document CHEMBL1201862, “PubChem BioAssay data set” (2004)
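Growth conditions: 96-well plates. Treatment: test compound, 48 hours, 5 concentrations. Analysis: linear interpolation between bracketing concentrations; unreached endpoints set to highest concentration. GI50: concentration for 50% inhibition of growth.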 Calls of active or inactive are those of the source. Rule as the data show it: active = GI50 up to about 1.1 µM and inactive = higher.

Legend:
Assay in all cases: NCI tumour cell line growth inhibition, 48 h
BT-549 = tested on: BT-549
RPMI-8226 = tested on: RPMI-8226
HCT-116 = tested on: HCT-116
IGROV-1 = tested on: IGROV-1
SF-295 = tested on: SF-295
HOP-62 = tested on: HOP-62
A498 = tested on: A498
UACC-62 = tested on: UACC-62
U-251 = tested on: U-251
NCI-H23 = tested on: NCI-H23
K562 = tested on: K562
SNB-19 = tested on: SNB-19
SN12C = tested on: SN12C
MDA-MB-231 = tested on: MDA-MB-231
HOP-92 = tested on: HOP-92
EKVX = tested on: EKVX
Malme-3M = tested on: Malme-3M
SF-268 = tested on: SF-268
786-0 = tested on: 786-0
RXF 393 = tested on: RXF 393
LOX IMVI = tested on: LOX IMVI
OVCAR-4 = tested on: OVCAR-4
UO-31 = tested on: UO-31
HT-29 = tested on: HT-29
SK-MEL-28 = tested on: SK-MEL-28
SK-MEL-2 = tested on: SK-MEL-2
M14 = tested on: M14
DU-145 = tested on: DU-145
PC-3 = tested on: PC-3
HL-60 = tested on: HL-60
MDA-N = tested on: MDA-N
CCRF-CEM = tested on: CCRF-CEM
CAKI-1 = tested on: CAKI-1
MOLT-4 = tested on: MOLT-4
NCI-H226 = tested on: NCI-H226
OVCAR-8 = tested on: OVCAR-8
SK-MEL-5 = tested on: SK-MEL-5
SNB-75 = tested on: SNB-75
OVCAR-5 = tested on: OVCAR-5
SW-620 = tested on: SW-620
KM12 = tested on: KM12
NCI-H460 = tested on: NCI-H460
NCI/ADR-RES = tested on: NCI/ADR-RES
MDA-MB-435 = tested on: MDA-MB-435
NCI-H522 = tested on: NCI-H522
T47D = tested on: T47D
HCT-15 = tested on: HCT-15
UACC-257 = tested on: UACC-257
A549 = tested on: A549
ACHN = tested on: ACHN
SR = tested on: SR
TK-10 = tested on: TK-10
OVCAR-3 = tested on: OVCAR-3
SF-539 = tested on: SF-539
COLO 205 = tested on: COLO 205
HCC 2998 = tested on: HCC 2998
SK-OV-3 = tested on: SK-OV-3

O=C(O)c1ccccc1C1c2ccccc2Oc2ccccc21
GI50 (BT-549): 72.3 µM (inactive)
GI50 (RPMI-8226): 54.6 µM (inactive)
GI50 (HCT-116): 45.3 µM (inactive)
GI50 (IGROV-1): 76 µM (inactive)
GI50 (SF-295): 40.2 µM (inactive)
GI50 (HOP-62): 41.3 µM (inactive)
GI50 (A498): 27.7 µM (inactive)
GI50 (UACC-62): 25.8 µM (inactive)
GI50 (U-251): 35.2 µM (inactive)
GI50 (NCI-H23): 39.7 µM (inactive)
GI50 (K562): 75.2 µM (inactive)
GI50 (SNB-19): 85.7 µM (inactive)
GI50 (SN12C): 46 µM (inactive)
GI50 (MDA-MB-231): > 100 µM (inactive)
GI50 (HOP-92): 19.1 µM (inactive)
GI50 (EKVX): 49.2 µM (inactive)
GI50 (Malme-3M): 26.7 µM (inactive)
GI50 (SF-268): 28.8 µM (inactive)
GI50 (786-0): 49.5 µM (inactive)
GI50 (RXF 393): 69.5 µM (inactive)
GI50 (LOX IMVI): 98.4 µM (inactive)
GI50 (OVCAR-4): 69.7 µM (inactive)
GI50 (UO-31): 65.8 µM (inactive)
GI50 (HT-29): 74.6 µM (inactive)
GI50 (SK-MEL-28): > 100 µM (inactive)
GI50 (SK-MEL-2): 23.4 µM (inactive)
GI50 (M14): > 100 µM (inactive)
GI50 (DU-145): 46.7 µM (inactive)
GI50 (PC-3): 65.9 µM (inactive)
GI50 (HL-60): 39 µM (inactive)
GI50 (MDA-N): 58.6 µM (inactive)
GI50 (CCRF-CEM): > 100 µM (inactive)
GI50 (CAKI-1): 34.1 µM (inactive)
GI50 (MOLT-4): 38.9 µM (inactive)
GI50 (NCI-H226): 16.4 µM (inactive)
GI50 (OVCAR-8): 96.6 µM (inactive)
GI50 (SK-MEL-5): 41.4 µM (inactive)
GI50 (SNB-75): 22.6 µM (inactive)
GI50 (OVCAR-5): > 100 µM (inactive)
GI50 (SW-620): > 100 µM (inactive)
GI50 (KM12): 62.2 µM (inactive)
GI50 (NCI-H460): 39.9 µM (inactive)
GI50 (NCI/ADR-RES): 59.7 µM (inactive)
GI50 (MDA-MB-435): 52.4 µM (inactive)
GI50 (NCI-H522): 26.8 µM (inactive)
GI50 (T47D): 71.9 µM (inactive)
GI50 (HCT-15): 36.9 µM
GI50 (UACC-257): > 100 µM (inactive)
GI50 (A549): 48.6 µM (inactive)
GI50 (ACHN): 34.6 µM (inactive)
GI50 (SR): 41.9 µM (inactive)
GI50 (TK-10): > 100 µM (inactive)
GI50 (OVCAR-3): 27.9 µM (inactive)

CC(=O)/C(=C/N1CC(=O)NC1=S)C(=O)Nc1ccccc1C
GI50 (BT-549): > 100 µM (inactive)
GI50 (HCT-116): > 100 µM (inactive)
GI50 (IGROV-1): > 100 µM (inactive)
GI50 (SF-295): > 100 µM (inactive)
GI50 (HOP-62): > 100 µM (inactive)
GI50 (A498): > 100 µM (inactive)
GI50 (U-251): > 100 µM (inactive)
GI50 (NCI-H23): > 100 µM (inactive)
GI50 (SNB-19): > 100 µM (inactive)
GI50 (SN12C): > 100 µM (inactive)
GI50 (MDA-MB-231): > 100 µM (inactive)
GI50 (HOP-92): > 100 µM (inactive)
GI50 (EKVX): > 100 µM (inactive)
GI50 (SF-539): > 100 µM (inactive)
GI50 (SF-268): > 100 µM (inactive)
GI50 (786-0): > 100 µM (inactive)
GI50 (RXF 393): > 100 µM (inactive)
GI50 (LOX IMVI): > 100 µM (inactive)
GI50 (OVCAR-4): > 100 µM (inactive)
GI50 (UO-31): > 100 µM (inactive)
GI50 (HT-29): > 100 µM (inactive)
GI50 (SK-MEL-28): > 100 µM (inactive)
GI50 (SK-MEL-2): > 100 µM (inactive)
GI50 (M14): > 100 µM (inactive)
GI50 (DU-145): > 100 µM (inactive)
GI50 (HL-60): > 100 µM (inactive)
GI50 (MDA-N): > 100 µM (inactive)
GI50 (CAKI-1): > 100 µM (inactive)
GI50 (MOLT-4): > 100 µM (inactive)
GI50 (NCI-H226): > 10 µM (inactive)
GI50 (OVCAR-8): > 100 µM (inactive)
GI50 (SK-MEL-5): > 100 µM (inactive)
GI50 (SNB-75): > 100 µM (inactive)
GI50 (OVCAR-5): > 100 µM (inactive)
GI50 (SW-620): > 100 µM (inactive)
GI50 (KM12): > 100 µM (inactive)
GI50 (NCI-H460): > 100 µM (inactive)
GI50 (NCI/ADR-RES): > 100 µM (inactive)
GI50 (MDA-MB-435): > 100 µM (inactive)
GI50 (T47D): > 100 µM (inactive)
GI50 (HCT-15): > 100 µM
GI50 (UACC-257): > 100 µM (inactive)
GI50 (A549): > 100 µM (inactive)
GI50 (ACHN): > 100 µM (inactive)
GI50 (COLO 205): > 100 µM (inactive)
GI50 (TK-10): > 100 µM (inactive)
GI50 (HCC 2998): > 100 µM (inactive)
GI50 (OVCAR-3): > 100 µM (inactive)
GI50 (SK-OV-3): > 100 µM (inactive)
